According to patent publication US20240251788A1, “HERBICIDE/SAFENER COMBINATION BASED ON SAFENERS FROM THE CLASS OF SUBSTITUTED [(1,5-DIPHENYL-1H-1,2,4-TRIAZOL-3-YL)OXY]ACETIC ACIDS AND THEIR SALTS” (Bayer Aktiengesellschaft, priority 2021, published 2024):

Key:
[1] = tested on: summer barley crop plant (HORVS: cv. Quench); assay: Reduction in herbicide damage to summer barley by safener, greenhouse post-emergence application, visual scoring; assay type: in vivo; settings: summer barley (HORVS); herbicide dose 300 g a.i./ha, without safener
Experimental: (§1) The seeds of the crop plants to be treated are laid out in soil in woodfiber pots (diameter ˜ 7 cm), covered with soil and grown in a greenhouse under good conditions for germination and growth. The trial plants were treated at the early leaf stage (BBCH10-BBCH12).
The herbicides used (component B) were used in the following formulations: • B2.81: WP • B2.85: WP • B2.92: WP • Clomazone: WP • Ethofumesate: WP • Flufenacet: SC • Fluroxypyr: EC • Saflufenacil: WP • Thiencarbazone-methyl: WP • Iodosulfuron-methyl-sodium: WP • Bifenox: WP • Glyphosate potassium salt: SL • Topramezone: WP
(§2) The dose of the respective herbicides was chosen here such that it causes an average degree of visually apparent damage (min. 20%, max. 75%) compared to untreated crop plants at the evaluation time on a control group of crop plants without safener treatment that were included in the same trial.
(§3) In the respective herbicide/safener combinations, the safeners (component A) in the form of wettable powders (WP) were added in the dose specified; in these cases, herbicide and safener are thus applied as a mixture.
(§4) Application was effected in each case on to the above-ground parts of the plant, at a water application rate corresponding to 300 l/ha and with addition of wetting agent (Mero, 1.5 l/h a).
In the applications that contained pinoxaden or topramezone, the herbicidal effect was enhanced by additionally adding ammonium sulfate (2 kg/ha).
(§5) After application, the plants were cultivated under good growth conditions in a greenhouse. On account of the different mechanisms of action of the herbicides used, the damaging effect of the herbicides was fully manifested at different times depending on the herbicide, and this in turn forms the basis for assessment of the safener action in the mixtures. Therefore, the damage was scored visually, depending on the herbicide/mixture, between 11 and 21 days after application.
(§6) The damage effect was assessed visually on a scale of 0-100% by comparison with untreated control plants, and averaged over 2 repeats per treatment.

[2] = tested on: summer wheat crop plant (TRZAS; cv. Triso); assay: Reduction in herbicide damage to summer wheat by safener, greenhouse post-emergence application, visual scoring; assay type: in vivo; settings: summer wheat (TRZAS); herbicide dose 300 g a.i./ha, without safener
Experimental: as §1
The herbicides used (component B) were used in the following formulations: • B2.81: WP • B2.85: WP • B2.92: WP • Cinmethylin: EC • Clomazone: WP • Ethofumesate: WP • Flufenacet: SC • Pinoxaden: WP • Saflufenacil: WP • Bicyclopyrone: WP • Picloram: WP • Metazachlor: SC • Flumioxazin: WP • Glyphosate potassium salt: SL • Topramezone: WP
as §2, §3, §4
In the applications that contained pinoxaden, bicyclopyrone or topramezone, the herbicidal effect was enhanced by additionally adding ammonium sulfate (2 kg/ha).
as §5, §6

topramezone [Compound B4.28, reference compound]
Damage to the plant by the herbicide (in %) [1]: 50% | Damage to the plant by the herbicide (in %) [2]: 40%
